Reference: patent US11246856B2, “Methods of treating resistant cancers” (University of Maryland, Baltimore, priority 2017, dated 2022)
“Also recorded” adds a separate entry of the source.

Legend:
[1] = system: A375 cells; assay: Spheroid formation assay, A375; format: cell-based
Method: (§1) Cancer cells were maintained under attached conditions in growth media containing DMEM (Invitrogen, Frederick, Md.) supplemented with 4.5 mg/ml D-glucose, […] L-glutamine, 100 mg/ml sodium pyruvate, and 5% fetal calf serum. For spheroid culture, monolayer cultures were dissociated with 0.25% trypsin and the cells were collected by centrifugation, and resuspended in spheroid media, consisting of DMEM/F12 (1:1) (DMT-10-090-CV, Mediatech INC, Manassa, Va.) containing 2% B27 serum-free supplement (17504-044, Invitrogen, Frederick, Md.) 20 ng/ml EGF (E4269, Sigma, St. Louis), 0.4% bovine serum albumin (B4287, Sigma) and […] insulin (19278 Sigma, St. Louis, Mo.) and plated at 40,000 cells per 9.6 cm^2 well in six well ultra-low attachment Costar cluster dishes (4371, Corning, Tewksbury, Mass.). Parallel cultures were plated in spheroid media on conventional plastic dishes for growth as monolayer cultures.

[2] = system: A375-PLX-R cells; assay: Spheroid formation assay, A375-PLX-R; format: cell-based
Method: as §1
(§2) A375, SK-MEL-5 and SK-MEL-28 cell lines were maintained in DMEM growth medium containing 10% FCS, 2 mM L-glutamine and 1 mM sodium pyruvate. The WM3248 cells were maintained in MCDB153:L15 (4:1) growth medium containing 2% FCS, […] insulin and 1.68 mM CaCl2. To create PLX4032-resistant cells, A375, SK-MEL-5, SK-MEL-28 and WM3248 cells were treated with […] in monolayer culture in growth medium for several weeks. The surviving cells were then expanded and cultured in increasing doses of PLX4032 up to […]. The resulting PLX4032-resistant cells, designated PLX4032-resistant (e.g., A375-PLX-R) were routinely maintained in the presence of […] PLX4032.

[3] = system: A375 cells; assay: Matrigel invasion assay, A375; format: cell-based
Method: (§3) Matrigel (BD Biolabs) was diluted in 0.01 M Tris-HCL/0.7% NaCl, filter-sterilized and 0.1 ml was used to cover the membrane in BD BioCoat cell inserts (#353097, […], 24 well format, membrane growth area=0.33 cm^2). Cells 25,000/well were plated in […] of growth media containing 1% FCS atop the Matrigel. Growth media containing 10% FCS was added to the lower well and cells were incubated overnight at 37 C. The following day, excess cells from the top side of the membrane were removed with a cotton swab, and the membrane was rinsed in phosphate-buffered saline, fixed with 4% paraformaldehyde for 10 minutes, washed and stained in […] DAPI for 10 minutes to visualize the cells. The underside of the membrane was photographed with an inverted fluorescent microscope to count the number of cells that had migrated through the Matrigel layer (38).

[4] = system: A375-PLX-R cells; assay: Matrigel invasion assay, A375-PLX-R; format: cell-based; set-up: suppression of matrigel invasion at higher verteporfin concentrations: dose or concentration left out as unconfirmed
Method: as §3, §2

[5] = system: PLX4032-resistant SK-MEL-5, SK-MEL-28 and WM3248 cells; assay: Spheroid formation, other PLX4032-resistant melanoma lines; format: cell-based; conditions: PLX4032-resistant SK-MEL-5, SK-MEL-28, WM3248; FIGS. 5B, 5E
Method: as §1
(§4) A375, SK-MEL-5 and SK-MEL-28 cell lines were maintained in DMEM growth medium containing 10% FCS, 2 mM L-glutamine and 1 mM sodium pyruvate. […]
(§5) The impact of verteporfin on additional PLX4032 resistant melanoma cancer cell lines was examined. […] To determine whether YAP1 and TAZ can antagonize PLX4032 action, constitutively active YAP1 and TAZ were expressed in wild-type SK-MEL-28 cells and the impact on cell proliferation was monitored.

[6] = system: PLX4032-resistant SK-MEL-5, SK-MEL-28 and WM3248 cells; assay: Matrigel invasion, other PLX4032-resistant melanoma lines; format: cell-based; conditions: PLX4032-resistant SK-MEL-5, SK-MEL-28, WM3248; FIGS. 5C, 5F
Method: as §3, §4, §5

[7] = system: A375-PLX-R spheroid cell-derived tumors; assay: Tumor xenograft assay, A375-PLX-R spheroid cell-derived tumors; format: in vivo, NSG mice
Method: Cells were grown for ten days as spheroids and a single cell suspension, prepared by trypsin digestion, was resuspended in phosphate buffered saline containing 30% Matrigel and 100 μl containing 0.1 million cells were injected subcutaneously at the two front flanks of NOD/scid/IL2 receptor gamma-knockout mice (NSG mice) using a 26.5 gauge needle. PLX4032 was dissolved in phosphate-buffered saline containing 10% DMSO and delivered at 20 mg/kg by oral gavage in […] three times per week (M/W/F). Verteporfin was dissolved in phosphate-buffered saline containing 10% DMSO and 0-100 mg/kg was delivered by intraperitoneal injection of […] three times per week (M/W/F). Five mice were used per group (two tumors per mouse) and treatment was initiated two days after tumor cell injection. Tumor growth was monitored by measuring tumor diameter and calculating tumor volume using the formula, volume=4/3π×(diameter/2)^3. Mice were euthanized by injection of 250 μl of a 2.5% stock of Avertin per mouse followed by cervical dislocation of the neck. Tumor samples were harvested to prepare extract for immunoblot and sections for immunostaining. These experiments were reviewed and approved by the University of Maryland-Baltimore Institutional Animal Care and Use Committee. The plotted values are mean±SEM and significance were determined using the students t-test.

[8] = system: pre-formed spheroids; assay: Treatment of pre-formed spheroids; format: cell-based
Method: as §1
Identification of agents that suppress survival of PLX4032-resistant cells, or re-sensitize these cells to PLX4032, is an important goal. […] YAP1 interacts with TEAD transcription factors to drive gene expression (6,28) and a small molecular inhibitor called verteporfin has been reported to disrupt YAP1/TEAD interaction by binding to YAP1 and altering its structure (6,16). The impact of verteporfin treatment on spheroid formation and matrigel invasion in PLX4032 sensitive and resistant MCS cells was examined.

CCCS(=O)(=O)Nc1ccc(F)c(C(=O)c2c[nH]c3ncc(-c4ccc(Cl)cc4)cc23)c1F [PLX4032]
spheroid formation ([1]; A375 cells, FIGS. 2A-2B): suppressed | A375-PLX-R spheroid formation ([2]; 0-1 μM PLX4032, no verteporfin, FIG. 5A legend): does not suppress | A375-PLX-R spheroid formation ([2]; 0-1 mM PLX4032, no verteporfin, FIG. 5A): did not suppress | spheroid formation ([2]; A375-PLX-R cells, FIGS. 2A-2B): not | matrigel invasion ([3]; A375, PLX4032 treatment): not suppressed; also recorded: did not impact | matrigel invasion ([4]; A375-PLX-R, PLX4032 treatment): not suppressed; also recorded: did not impact | spheroid formation [5]: did not reduce | matrigel invasion [6]: did not reduce | ERK1/2-P level in tumors ([7]; PLX4032 20 mg/kg in the presence of verteporfin): reduced | tumor growth / tumor formation ([7]; PLX4032 20 mg/kg oral gavage three times per week, absence of verteporfin, 20 mg/kg): did not suppress

verteporfin
IC50 ([1]; A375, FIG. 4A legend, read-out: verteporfin concentration suppressing spheroid formation by 50%): 100 to 250 nM | spheroid formation at higher verteporfin concentrations ([1]; A375, above 0.1-0.25 mM): nearly completely inhibited | IC50 ([2]; A375-PLX-R, FIG. 4B legend, read-out: verteporfin concentration suppressing spheroid formation by 50%): 100 to 250 nM | spheroid formation at higher verteporfin concentrations ([2]; A375-PLX-R, above 0.1-0.25 mM): nearly completely inhibited | PLX4032 suppression of spheroid number on verteporfin co-treatment ([2]; co-treatment 0.1 μM verteporfin with 0-1 μM PLX4032, FIG. 5A legend): restores | PLX4032 suppression of spheroid number on verteporfin co-treatment ([2]; co-treatment 0.1 mM verteporfin with 0-1 mM PLX4032, FIG. 5A): restored | reduction of spheroid number/integrity ([8]; 20 μM verteporfin, 3-day treatment, FIG. 4C legend): 30-50% | pre-formed spheroids after prolonged treatment ([8]; prolonged verteporfin treatment (not shown)): complete destruction | reduction of spheroid number/integrity ([8]; spheroids formed for 8 d, 3D treatment, FIG. 4C): 30-50% | suppression of matrigel invasion at higher verteporfin concentrations ([3]; A375 (FIG. 4D), above 0.5-1 mM): nearly complete | IC50 ([3]; A375, FIG. 4D legend, read-out: verteporfin concentration giving 50% suppression of matrigel invasion): 500 to 1000 nM | suppression of matrigel invasion at higher verteporfin concentrations ([4]; A375-PLX-R (FIG. 4E)): nearly complete | IC50 ([4]; A375-PLX-R, FIG. 4E legend, read-out: verteporfin concentration giving 50% suppression of matrigel invasion): 500 to 1000 nM | spheroid formation [5]: reduced | matrigel invasion [6]: reduced | YAP1, YAP1-P, TAZ and TEAD levels in tumors ([7]; 10 mg/kg verteporfin/20 mg/kg PLX4032-treated tumors, FIG. 7C): reduction | tumor size ([7]; verteporfin 0-100 mg/kg intraperitoneal three times per week, FIGS. 7A-7B): dose-dependent reduction | tumor formation ([7]; verteporfin 10 mg/kg alone): does not suppress | PLX4032-dependent suppression of tumor formation ([7]; verteporfin 10 mg/kg with PLX4032 20 mg/kg): restores
